# Tested on: U2OS_Bim cells
# Test: Apoptosis inhibition assay (Bim-induced apoptosis, cell viability by ATP level)
# Assay type: cell-based
# Conditions: U2OS_Bim cells, DOX-induced Bim overexpression, viability 24 h after DOX; read-out: EC50
# Procedure: A chemical library containing 200000 compounds was screened according to the following procedure: U2OS_Bim cells (a cell line in which the BH3-only protein Bim can be inducibly expressed by the addition of Doxycycline to the growth medium)^[2] were plated in 384-well plates with 30 μl medium at a density of 500 cells per well. 16 hrs after plating, test compounds were transferred from stock plates to the assay plates with the cultured cells. Positive control (20 μM zVAD) and negative control (DMSO) were added to every plate. 1 hr after compound treatment, 0.1 ug/mL Doxycyclin (DOX) was added to induce the expression of the Bim protein. After 24 hrs, cell viability was determined by measuring the ATP levels using a Cell Titer-Glo kit (Promega, G7570) according to the manufacturer's instructions. Luminescence was recorded with a PerkinElmer EnSpire Multimode Plate Reader. Compounds that could rescue cell viability to a level above 50% were selected; these compounds were then screened a second time for assurance.
# U2OS_Bim or U2OS_tBid cells were plated at a density of 3000 cells per well in 96-well plates. 24 hrs later, cells were treated with experimental compounds, zVAD (positive control) and DMSO (Negative control) for one hour. The cells were then treated with 0.1 μg/mL DOX to trigger apoptosis. 24 hours after the addition of DOX, cell viability was determined by measuring the ATP levels using a Cell Titer-Glo kit. Cell survival rate was calculated.
# U2OS_Bim cells (a U2OS stable cell line transfected with a Bim transgene) were cultured in DMEM culture medium (Gibico). On day one, U2OS_Bim cells were plated in 96-well plates at a density of 3000 cells per well. On day two, cells were pretreated with compounds for one hour. Then cells were treated with 0.1 μg/mL doxycycline (DOX) to trigger apoptosis. 24 hours after DOX treatment, cell viability was determined by measuring the ATP levels using the Cell Titer-Glo kit (G7570, Promega), according to the manufacturer's instructions. Luminescence was recorded with a PerkinElmer EnSpire Multimode Plate Reader. Survived cells were normalized to those cells treated with DMSO. zVAD (20 μM) was used as a positive control. Activity data for compounds […] are represented as means f standard deviation of duplicates; activity data for compounds 187-274 are estimated based on preliminary results.
row,SMILES,EC50 [nM]
1,COc1ccc(Cn2cc(-c3cc(C(F)(F)F)nc(S(=O)(=O)CCCC(=O)NC45CC6CC(CC(C6)C4)C5)n3)ccc2=O)cc1OC [Compound 289],0.42

# Same assay, conditions: U2OS_Bim cells; estimated (*Est.) / preliminary results; numbering of Tables 4a/4b; read-out: EC50
row,SMILES,EC50 [nM]
1,Cc1cc(-c2cc(F)c(=O)n(Cc3ccc4c(c3)OCO4)c2)nc(S(=O)(=O)CCC(OCC2CC2)c2ccccc2)n1 (stereo not shown) [Compound 418],1 to 1000
2,Cc1cc(-c2cc(F)c(=O)n(Cc3ccc4c(c3)OCO4)c2)nc(S(=O)(=O)CCC(OCc2ccccc2F)c2cccs2)n1 (stereo not shown) [Compound 389],1 to 1000
3,Cc1cc(-c2cc(F)c(=O)n(Cc3ccc4c(c3)OCO4)c2)nc(S(=O)(=O)CCC(OCc2ccccc2F)c2ccncc2)n1 (stereo not shown) [Compound 385],1 to 1000
4,Cc1cc(-c2cc(F)c(=O)n(Cc3ccc4c(c3)OCO4)c2)nc(S(=O)(=O)CCC(OCC(C)(C)C)c2ccccc2)n1 (stereo not shown) [Compound 421],1 to 1000
5,Cc1cc(-c2cc(F)c(=O)n(Cc3ccc4c(c3)OCO4)c2)nc(S(=O)(=O)CCCC(=O)N(c2ccccc2)C2CC2)n1 [Compound 372],1 to 1000

# Same assay, conditions: U2OS_Bim cells; estimated based on preliminary results; numbering of Tables 4a/4b; read-out: EC50
row,SMILES,EC50 [nM]
1,COc1cn(Cn2cc(-c3cc(C(F)(F)F)nc(S(C)(=O)=O)n3)ccc2=O)cc1OC [Compound 258],< 10000
2,COc1ccc(Cn2cc(-c3cc(-n4ccnc4)nc([S+](C)[O-])n3)ccc2=O)cc1OC (stereo not shown) [Compound 221],< 10000
3,COc1ccc(Cn2cc(-c3cc(C4=CCC=C4)nc([S+](C)[O-])n3)ccc2=O)cc1OC (stereo not shown) [Compound 209],< 10000
4,CS(=O)(=O)c1nc(-c2ccc(=O)n(Cc3ccc4ccncc4c3)c2)cc(C(F)(F)F)n1 [Compound 250],< 10000
5,COc1ccc(Cn2cc(-c3cc(-c4cncs4)nc([S+](C)[O-])n3)ccc2=O)cc1OC (stereo not shown) [Compound 216],< 10000
6,CCOc1cccc(Cn2cc(-c3cc(C(F)(F)F)nc([S+](C)[O-])n3)ccc2=O)c1 (stereo not shown) [Compound 268],< 10000
7,COc1ccc(Cn2cc(-c3cc(-n4cccc4)nc(S(C)(=O)=O)n3)ccc2=O)cc1OC [Compound 219],< 10000
8,COc1cn(Cn2cc(-c3cc(C(F)(F)F)nc([S+](C)[O-])n3)ccc2=O)cc1OC (stereo not shown) [Compound 259],< 10000
9,COc1ccc(Cn2cc(-c3cc(C(F)(F)F)nc(S(=O)(=O)Cc4ccccn4)n3)ccc2=O)cc1OC [Compound 189],< 10000

# Same assay, conditions: U2OS_Bim cells; means of duplicates; numbering of Tables 4a/4b; read-out: EC50
row,SMILES,EC50 [nM]
1,"CS(=O)(=O)c1nc(-c2ccn(Cc3cccc(C#N)c3)c2)cc(C(F)(F)F)n1 [Compound 97, 3-((3-(2-(methylsulfonyl)-6-(trifluoromethyl)pyrimidin-4-yl)-1H-pyrrol-1-yl)methyl)benzonitrile]",< 100000
2,"COc1cccc(S(=O)(=O)c2nc(-c3ccc(=O)n(Cc4ccc(OC)c(OC)c4)c3)cc(C(F)F)n2)c1 [Compound 174, 5-(6-(difluoromethyl)-2-((3-methoxyphenyl)sulfonyl)pyrimidin-4-yl)-1-(3,4-dimethoxybenzyl)pyridin-2 (1H)-one]",1 to 1000
3,"CS(=O)(=O)c1nc(-c2ccc(C(=O)O)cc2)cc(C(F)(F)F)n1 [Compound 64, 4-(2-(methylsulfonyl)-6-(trifluoromethyl)pyrimidin-4-yl)benzoic acid]",< 100000
4,"C#CCOc1cc(Cn2cc(-c3cc(C)nc(S(=O)(=O)CCC(OCc4ccccc4F)c4ccccc4)n3)cc(F)c2=O)ccc1OC (stereo not shown) [Compound 332, 3-fluoro-5-(2-((3-((2-fluorobenzyl)oxy)-3-phenylpropyl)sulfonyl)-6-methylpyrimidin-4-yl)-1-(4-methoxy-3-(prop-2-yn-1-yloxy)benzyl)pyridin-2 (1H)-one]",1 to 1000
5,"COC(=O)c1ccc(-c2cc(C(F)(F)F)nc([S+](C)[O-])n2)cc1 (stereo not shown) [Compound 62, methyl 4-(2-(methylsulfinyl)-6-(trifluoromethyl)pyrimidin-4-yl)benzoate]",< 100000
6,"COc1ccc(Cn2cc(-c3cc(C(F)F)nc(S(C)(=O)=O)n3)ccc2=O)cc1F [Compound 167, 5-(6-(difluoromethyl)-2-(methylsulfonyl)pyrimidin-4-yl)-1-(3-fluoro-4-methoxybenzyl)pyridin-2 (11H)-one]",1 to 1000
7,"CS(=O)(=O)c1nc(-c2ccn(Cc3ccc(Cl)cc3)c2)cc(C(F)(F)F)n1 [Compound 95, 4-(1-(4-chlorobenzyl)-1H-pyrrol-3-yl)-2-(methylsulfonyl)-6-(trifluoromethyl)pyrimidine]",< 100000
8,"COc1ccc(Cn2cc(-c3cc(C(F)(F)F)nc([S+](C)[O-])n3)ccc2=O)cc1 (stereo not shown) [Compound 111, 1-(4-Methoxybenzyl)-5-(2-(methylsulfinyl)-6-(trifluoromethyl)pyrimidin-4-yl)pyridin-2 (1H)-one]",1 to 1000
9,"Cc1cc(-c2cc(F)c(=O)n(Cc3ccc(Cl)c(Cl)c3)c2)nc(S(=O)(=O)CCC(OCc2ccc(F)cc2F)c2ccccc2)n1 (stereo not shown) [Compound 316, 1-(3,4-dichlorobenzyl)-5-(2-(3-(2,4-difluorobenzyloxy)-3-phenylpropylsulfonyl)-6-methylpyrimidin-4-yl)-3-fluoropyridin-2 (1H)-one]",1000 to 10000
10,"CS(=O)(=O)c1nc(-c2cc[nH]c2)cc(C(F)(F)F)n1 [Compound 87, 2-(methylsulfonyl)-4-(1H-pyrrol-3-yl)-6-(trifluoromethyl)pyrimidine]",< 100000
11,"CS(=O)(=O)c1nc(-c2ccc(=O)n(Cc3cccc(O)c3)c2)cc(C(F)(F)F)n1 [Compound 108, 1-(3-hydroxybenzyl)-5-(2-(methylsulfonyl)-6-(trifluoromethyl)pyrimidin-4-yl)pyridin-2 (1H)-one]",1000 to 10000
12,"CS(=O)(=O)c1nc(-c2ccc(F)cc2)cc(C(F)(F)F)n1 [Compound 45, 4-(4-fluorophenyl)-2-(methylsulfonyl)-6-(trifluoromethyl)pyrimidine]",1000 to 10000
13,"CS(=O)(=O)c1nc(-c2ccc(=O)n(Cc3ccc(C#N)cc3)c2)cc(C(F)(F)F)n1 [Compound 119, 4-((5-(2-(methylsulfonyl)-6-(trifluoromethyl)pyrimidin-4-yl)-2-oxopyridin-1 (2H)-yl)methyl)benzonitrile]",1000 to 10000
14,COc1ccc(Cn2cc(-c3cc(C(F)(F)F)nc(S(=O)(=O)CCCC(=O)NC45CC6CC(CC(C6)C4)C5)n3)ccc2=O)cc1OC [Compound 289],1 to 1000
15,"Cc1cc(-c2cc(F)c(=O)n(Cc3ccc4nsnc4c3)c2)nc(S(=O)(=O)CCC(OCc2ccccc2F)c2ccccc2)n1 (stereo not shown) [Compound 319, 1-(benzo[c][1,2,5]thiadiazol-5-ylmethyl)-3-fluoro-5-(2-(3-(2-fluorobenzyloxy)-3-phenylpropylsulfonyl)-6-methylpyrimidin-4-yl)pyridin-2 (1H)-one]",1 to 1000
16,"CCCCCCNC(=O)CCCS(=O)(=O)c1nc(-c2ccc(=O)n(Cc3ccc(OC)c(OC)c3)c2)cc(C(F)F)n1 [Compound 183, 4-((4-(difluoromethyl)-6-(1-(3,4-dimethoxybenzyl)-6-oxo-1,6-dihydropyridin-3-yl)pyrimidin-2-yl)sulfonyl)-N-hexylbutanamide]",1 to 1000
17,"CCCCCS(=O)(=O)c1nc(-c2ccc(=O)n(Cc3ccc(OC)c(OC)c3)c2)cc(C(F)(F)F)n1 [Compound 147, 1-(3,4-dimethoxybenzyl)-5-(2-(pentylsulfonyl)-6-(trifluoromethyl)pyrimidin-4-yl)pyridin-2 (1H)-one]",1 to 1000
18,"COc1ccc(Cn2cc(-c3cc(C)nc(S(=O)(=O)CCC(OCc4ccccc4)c4ccccc4)n3)ccc2=O)cc1OC (stereo not shown) [Compound 295, 5-(2-(3-(benzyloxy)-3-phenylpropylsulfonyl)-6-methylpyrimidin-4-yl)-1-(3,4-dimethoxybenzyl)pyridin-2 (1H)-one]",1 to 1000
19,"CS(=O)(=O)c1nc(CF)cc(-c2cc(F)c(=O)n(Cc3ccc4c(c3)OCO4)c2)n1 [Compound 334, 1-(benzo[d][1,3]dioxol-5-ylmethyl)-3-fluoro-5-(6-(fluoromethyl)-2-(methylsulfonyl)pyrimidin-4-yl)pyridin-2 (1H)-one]",1000 to 10000
20,"COc1ccc(Cn2cc(-c3cc(C(F)F)nc(S(C)(=O)=O)n3)ccc2=O)cc1C(F)(F)F [Compound 169, 5-(6-(difluoromethyl)-2-(methylsulfonyl)pyrimidin-4-yl)-1-(4-methoxy-3-(trifluoromethyl)benzyl)pyridin-2 (1H)-one]",1 to 1000
21,"COc1cccc(Cn2cc(-c3cc(C(F)(F)F)nc(S(C)(=O)=O)n3)ccc2=O)c1 [Compound 109, 1-(3-methoxybenzyl)-5-(2-(methylsulfonyl)-6-(trifluoromethyl)pyrimidin-4-yl)pyridin-2 (1H)-one]",1 to 1000
22,"Cc1cc(-c2cnc(OCc3ccc4c(cnn4C)c3)c(F)c2)nc(S(=O)(=O)CCC(OCc2ccccc2F)c2ccccc2)n1 (stereo not shown) [Compound 328, 5-((3-fluoro-5-(2-(3-(2-fluorobenzyloxy)-3-phenylpropylsulfonyl)-6-methylpyrimidin-4-yl)pyridin-2-yloxy)methyl)-1-methyl-1H-indazole]",< 100000
